From US20030212147A1, “Enzyme activated chemotherapy of liver cancer” (priority 2003, published 2003)
“Also recorded” adds a separate entry of the source.

Key:
HepG2 cells = experiment: LDH-release cytotoxicity assay in HepG2 cells cultured in isotonic or hypertonic (AR-inducing) medium; type: cell-based, human; conditions: for effect on HepG2 cells (LDH release): 50 μM ND; for toxic effect (LDH released into the medium): 5 hours
Experimental: HepG2 cells, a human liver cell line, were purchased from the American Type Culture Collection (Rockville, Md.). The basic (isotonic) medium was MEM medium supplemented with 10% fetal bovine serum, 100 U/ml penicillin, 100 μg/ml streptomycin, 0.1 mM MEM non-essential amino acids, and 1 mM sodium pyruvate. Medium was made hypertonic by adding NaCl to 100 mM, and the osmolarity was about 500 mosmol/kg as determined by osmometer. ND was dissolved in 20% ethanol to make a 50 mM stock solution. NQ was dissolved in 100% ethanol to make a 50 mM stock solution. AL1576 was dissolved in 20 mM NaOH to make a 20 mM stock solution.
Cells were first cultured in isotonic medium until 70% confluent. The medium was then made hypertonic by NaCl and incubated for 72 hours. The cells were then seeded onto 24-well plate at 8×10^4 cells/well and incubated for 24 hours in hypertonic medium. Cells for isotonic control were processed in parallel except that no NaCl was added. ND and AR inhibitor AL1576 were added as indicated.
Cytotoxicity was measured by the percent of LDH (lactate dehydrogenase) released into the medium. LDH activity was determined by Cytotoxicity Detection Kit. The optical density of the colored product was measured at 492 and 690 nm by SpectraMax 340 Microplate reader (Molecular Devices). LDH released into the medium was measured by taking samples of the medium. Total LDH was determined by taking samples of cell extracts lysed by Triton X-100 at a final concentration of 1%.

[1] = type: physicochemical
Text: Naphthalene is insoluble in water. […] Accordingly, ND, the metabolized product of naphthalene (see FIG. 1), rather than naphthalene, was used to test the cytotoxic activity of the drug that is activated AR overproduced by HepG2 cells.

[2] = rabbit cataract model; taken as the likely toxic level for oral administration; cited from earlier work

O=C1NC(=O)C2(N1)c1cc(F)ccc1-c1ccc(F)cc12 [AL1576, 2,7-difluorospirofluorene-9,5′-imidazolidine-2′4′-dione, reference compound]
protection of HepG2 cells against the toxic effects of ND by the AR inhibitor (HepG2 cells; HepG2 cells in hypertonic medium with ND): can protect these cells against the toxic effects of ND

c1ccc2ccccc2c1 [Naphthalene]
behaviour when added to the medium [1]: quickly precipitates
solubility in water [1]: insoluble
dose at which cataract and degeneration of the retina develop [2]: about 1 g/kg body weight

OC1C=Cc2ccccc2C1O (stereo not shown) [ND, naphthalene-1,2-dihydrodiol]
effect on HepG2 cells (LDH release) (HepG2 cells; hypertonic medium): no effect
effect on HepG2 cells (LDH release) (HepG2 cells; isotonic medium): no effect
toxic effect (LDH released into the medium) (HepG2 cells; 500 μM ND, HepG2 cells in hypertonic medium (AR overexpressed)): highly toxic
toxic effect (LDH released into the medium) (HepG2 cells; 500 μM ND, HepG2 cells in isotonic medium): no sign of toxic effects; also recorded: no toxic effect
LDH released relative to that released by control cells (isotonic medium) (HepG2 cells; 500 μM ND, hypertonic versus isotonic medium): more than 10 times
sensitivity of HepG2 cells to ND in hypertonic versus isotonic medium (HepG2 cells; hypertonic versus isotonic medium): 10 times
